Source: US8691861B2, “Prodrugs of inhibitors of plasma kallikrein” (ActiveSite Pharmaceuticals, Inc., priority 2011, dated 2014)
Non-standard residues stand in square brackets, D forms with d. *: point of attachment. CH2Cl = ClC*

Tests used:
[1] = cited from earlier work
[2] = Conversion of prodrug in vivo: plasma levels of the active plasma kallikrein inhibitor after oral dosing of the prodrug; design: species or system Sprague-Dawley rats; settings: rats, 25 mg/kg oral in PEG400
Protocol: Young male Sprague-Dawley rats were orally dosed at 25 mg/kg with the prodrug 1-(4-fluorophenyl)-N-[[4-(N′-hydroxycarbamimidoyl)phenyl]methyl]-2,5-dimethyl-pyrrole-3-carboxamide dissolved in PEG400. Blood was removed at various time intervals via an arterial catheter into a citrated collection tube, and plasma generated by centrifugation. The concentration of the active plasma kallikrein inhibitor N-[(4-carbamimidoylphenyl)methyl]-1-(4-fluorophenyl)-2,5-dimethyl-pyrrole-3-carboxamide in the plasma samples were determined using LC/MS/MS.

[3] = angiotensin-II-induced; cited from earlier work
[4] = diabetic animals; cited from earlier work
[5] = rat model of ischemic stroke; cited from earlier work
[6] = model of hemorrhagic stroke; cited from earlier work
[7] = rat models of arthritis; cited from earlier work
[8] = LPS or bacterial induced sepsis in animals; cited from earlier work
[9] = mouse model of middle cerebral artery occlusion; cited from earlier work
[10] = cited from earlier work; remark: listed apart in the source

For NC(N)=NCCC[C@@H](N)C(=O)N[C@@H](CCCN=C(N)N)C(=O)N1CCC[C@H]1C(=O)N1C[C@H](O)C[C@H]1C(=O)NCC(=O)N[C@@H](Cc1cccs1)C(=O)N[C@@H](CO)C(=O)N1Cc2ccccc2C[C@@H]1C(=O)N1[C@H](C(=O)N[C@@H](CCCN=C(N)N)C(=O)O)C[C@@H]2CCCC[C@@H]21 [icatibant], the “effectiveness in treating HAE” value [1] is given as “effective”.

In the case of Cc1cc(C(=O)NCc2ccc(/C(N)=N/O)cc2)c(C)n1-c1ccc(F)cc1 [1-(4-fluorophenyl)-N-[[4-(N′-hydroxycarbamimidoyl)phenyl]methyl]-2,5-dimethyl-pyrrole-3-carboxamide], the “absorption from the gastrointestinal tract following oral dosing” value [2] is reported as “absorbed from the gastrointestinal tract” and the “conversion in vivo into the active compound” value [2] is reported as “effectively converted in vivo”.

In the case of N=C(N)c1ccc(CNC(=O)c2cnn(Cc3ccccc3)c2)cc1 [ASP-440], the “elevated systolic blood pressure” value [3] is listed as “reduce”, the “plasma leakage into the retina” value [4] is listed as “inhibits” and the cerebrovascular edema [5] is listed as “reduce”. The infarction volume [5] was “reduce” and the “expansion of intracerebral hemorrhage” value [6] was “reduce”.

In the case of Cl.NCC1CCC(C(=O)N[C@@H](Cc2ccccc2)C(=O)Nc2ccc(CC(=O)O)cc2)CC1 (stereo partly shown) [PKSI-527], the joint swelling [7] is given as “reduce”.

For H-[dP]-Phe-Arg-CH2Cl, the lesions [8] is listed as “reduce”.

B1: C1-INH: the major endogenous inhibitor of PK (protein, UniProt P05155 23-500, looked up)
Plasma protease C1 inhibitor: NPNATSSSSQDPESLQDRGEGKVATTVISKMLFVEPILEVSSLPTTNSTTNSATKITANTTDEPTTQPTTEPTTQPTIQPTQPTTQLPTDSPTQPTTGSFCPGPVTLCSDLESHSTEAVLGDALVDFSLKLYHAFSAMKKVETNMAFSPFSIASLLTQVLLGAGENTKTNLESILSYPKDFTCVHQALKGFTTKGVTSVSQIFHSPDLAIRDTFVNASRTLYSSSPRVLSNNSDANLELINTWVAKNTNNKISRLLDSLPSDTRLVLLNAIYLSAKWKTTFDPKKTRMEPFHFKNSVIKVPMMNSKKYPVAHFIDQTLKAKVGQLQLSHNLSLVILVPQNLKHRLEDMEQALSPSVFKAIMEKLEMSKFQPTLLTLPRIKVTTSQDMLSIMEKLEFFDFSYDLNLCGLTEDPDLQVSAMQHQTVLELTETGVEAAAASAISVARTLLVFEVQQPFLFVLWDQQHKFPVFMGRVYDPRA
In the case of B1, the infarct size [9] is listed as “reduced”, the lesions [8] is listed as “reduce” and the “clinical outcome in sepsis patients” value [10] is listed as “Clinical improvement”.
